Among the data in patent US20100168102A9, “Amide Derivatives as Kinase Inhibitors” (Devgen NV, priority 2005, published 2010) are IC50 values, retold here.

The target of assay [1] is T1, PKC epsilon (Homo sapiens, UniProt Q02156).
T1 construct: purchased Invitrogen P2282
T1 sequence (Q02156 1-737): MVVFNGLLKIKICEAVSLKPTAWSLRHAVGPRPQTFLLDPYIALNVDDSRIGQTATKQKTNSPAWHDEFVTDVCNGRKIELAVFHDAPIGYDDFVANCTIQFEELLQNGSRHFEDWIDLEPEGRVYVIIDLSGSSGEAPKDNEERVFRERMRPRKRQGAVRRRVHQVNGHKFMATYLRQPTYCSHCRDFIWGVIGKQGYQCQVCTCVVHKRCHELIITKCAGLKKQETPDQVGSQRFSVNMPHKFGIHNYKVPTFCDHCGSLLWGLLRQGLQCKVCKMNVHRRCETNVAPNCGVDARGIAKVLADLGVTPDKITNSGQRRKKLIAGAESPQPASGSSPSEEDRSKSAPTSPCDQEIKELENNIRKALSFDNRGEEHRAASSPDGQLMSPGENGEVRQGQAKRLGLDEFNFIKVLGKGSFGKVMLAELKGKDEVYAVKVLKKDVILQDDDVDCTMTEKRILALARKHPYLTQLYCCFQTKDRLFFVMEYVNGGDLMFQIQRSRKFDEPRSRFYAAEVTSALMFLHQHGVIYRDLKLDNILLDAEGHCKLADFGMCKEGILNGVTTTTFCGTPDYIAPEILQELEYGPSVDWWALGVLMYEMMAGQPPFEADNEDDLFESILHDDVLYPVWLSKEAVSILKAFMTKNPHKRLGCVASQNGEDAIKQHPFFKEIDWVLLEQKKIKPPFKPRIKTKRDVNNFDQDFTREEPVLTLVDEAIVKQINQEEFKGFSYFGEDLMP
Put plainly: Biochemical assay for PKC epsilon (fluorescence polarization, Protein Kinase C Assay Kit, Red). Particulars: read-out: IC50 μM PKCε. Summed up:
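Read-out was fluorescence-polarization competition between phosphorylated substrate and a rhodamine PKC tracer for an anti-phosphoserine antibody, added with EDTA stop after an 80 min room-temperature kinase reaction with ATP and protein substrate (Mg2+/Ca2+ buffer). Enzyme (10 ng/ml final) was preincubated with compound for 30 min.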
For orientation: Fluorescence polarisation rises when a labelled molecule tumbles more slowly, as on binding a larger partner.

In assay [2] the target is T2, human ROCKα/ROCKII mix (Homo sapiens, UniProt O75116).
T2 construct: purchased Upstate Biotechnology 14-451
Put plainly: Biochemical assay for ROCK (fluorescence polarization, ROCK IMAP Kit).

[3] abbreviates: compounds of Formula XIV, Table 3.
[4] abbreviates: Table 2, compounds of Formula XIII.

Like-named read-outs stand apart in the source and are kept apart here.

By IC50 is commonly meant the midpoint of a concentration-inhibition curve.

T2 sequence (O75116 11-552 limits assumed): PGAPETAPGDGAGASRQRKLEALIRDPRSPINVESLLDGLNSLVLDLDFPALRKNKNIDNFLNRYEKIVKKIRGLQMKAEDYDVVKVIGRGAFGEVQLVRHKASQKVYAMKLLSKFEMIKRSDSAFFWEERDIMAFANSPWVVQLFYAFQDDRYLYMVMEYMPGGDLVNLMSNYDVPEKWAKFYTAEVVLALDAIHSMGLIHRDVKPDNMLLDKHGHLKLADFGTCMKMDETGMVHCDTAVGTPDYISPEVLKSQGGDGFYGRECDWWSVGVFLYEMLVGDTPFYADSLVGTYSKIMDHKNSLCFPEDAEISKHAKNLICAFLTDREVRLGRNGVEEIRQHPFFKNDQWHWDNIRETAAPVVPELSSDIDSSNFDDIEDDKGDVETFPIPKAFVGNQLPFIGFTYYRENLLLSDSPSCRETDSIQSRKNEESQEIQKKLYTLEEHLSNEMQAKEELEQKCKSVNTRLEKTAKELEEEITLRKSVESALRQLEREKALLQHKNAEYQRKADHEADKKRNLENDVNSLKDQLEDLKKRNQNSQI

As for `CC(C)C(C)NC(=O)CC(N)c1ccc(C(=O)Nc2ccncc2)cc1` (centres unmarked) [Compound 170, 4-[1-amino-2-(1,2-dimethyl-propylcarbamoyl)-ethyl]-N-pyridin-4-yl-benzamide], the IC50 in assay [1] (setting [3]) is 0.5 to 5 µM; in assay [2] (setting [3]) it was 0.05 to 0.5 µM.

In the case of `NC(c1ccc(C(=O)Nc2ccncc2)cc1)C1CCCN1C(=O)C1(c2cccc(F)c2)CCCC1` (centres unmarked) [Compound 570, 4-(Amino-{1-[1-(3-fluoro-phenyl)-cyclopentanecarbonyl]-pyrrolidin-2-yl}-methyl)-N-pyridin-4-yl-benzamide], the IC50 in assay [1] and in assay [2] was 0.5 to 5 µM in each case.

Turning to `NC(CNC(=O)Cc1ccc2c(c1)OCO2)c1ccc(C(=O)Nc2ccncc2)cc1` (centres unmarked) [Compound 141, 4-{1-amino-2-(2-benzo[1,3]dioxol-5-yl-acetylamino)-ethyl]-N-pyridin-4-yl-benzamide], the IC50 fell in the range of 5 to 50 µM in assay [1] (setting [4]) and 0.05 to 0.5 µM in assay [2] (setting [4]).

Regarding `NC(c1ccc(C(=O)Nc2ccncc2)cc1)C1CCCN1C(=O)Cc1cccc(Br)c1` (centres unmarked) [Compound 557, 4-(Amino-{1-[2-(3-bromo-phenyl)-acetyl]-pyrrolidin-2-yl}-methyl)-N-pyridin-4-yl-benzamide], the IC50 in assay [1] lay within 0.5 to 5 µM; in assay [2] it was 0.05 to 0.5 µM.

With `NC(CNC(=O)C1(c2ccc(F)cc2Cl)CC1)c1ccc(C(=O)Nc2ccncc2)cc1` (centres unmarked) [Compound 387, 4-(1-Amino-2-{[1-(2-chloro-4-fluoro-phenyl)-cyclopropanecarbonyl]-amino}-ethyl)-N-pyridin-4-yl-benzamide], the results for the IC50 in assay [1] (setting [4]) and in assay [2] (setting [4]) were less than 0.05 µM and 0.05 to 0.5 µM, respectively.

`NC(CNC(=O)[C@H]1CCC(=O)N1)c1ccc(C(=O)Nc2ccncc2)cc1` (stereo partly drawn) [Compound 68, 5-Oxo-pyrrolidine-2-(R)-carboxylic acid {2-amino-2-[4-(pyridin-4-ylcarbamoyl)-phenyl]-ethyl}-amide]: the IC50 in assay [1] (setting [4]) was 5 to 50 µM; in assay [2] (setting [4]), 0.05 to 0.5 µM.

With `NC(CC(=O)NCCc1ccc(Oc2ccccc2)cc1)c1ccc(C(=O)Nc2ccncc2)cc1` (centres unmarked) [Compound 292, 4-{1-Amino-2-[2-(4-phenoxy-phenyl)-ethylcarbamoyl]-ethyl}-N-pyridin-4-yl-benzamide], the IC50 in assay [1] (setting [3]) lay in the range of 0.5 to 5 µM; in assay [2] (setting [3]) it was 0.05 to 0.5 µM.

For `NC(c1ccc(C(=O)Nc2ccncc2)cc1)C1CCCN1C(=O)Cc1cccs1` (centres unmarked) [Compound 547, 4-{Amino-[1-(2-thiophen-2-yl-acetyl)-pyrrolidin-2-yl]-methyl}-N-pyridin-4-yl-benzamide], the IC50 in assay [1] was 5 to 50 µM; in assay [2] it was 0.05 to 0.5 µM.

For the compound `CN(CC(N)c1ccc(C(=O)Nc2ccncc2)cc1)C(=O)C1CCCc2sccc21` (centres unmarked) [Compound 520, 4,5,6,7-Tetrahydro-benzo[b]thiophene-4-carboxylic acid {2-amino-2-[4-(pyridin-4-ylcarbamoyl)-phenyl]-ethyl}-methyl-amide], the IC50 fell in the range of 5 to 50 µM in assay [1] and 0.5 to 5 µM in assay [2].

With `Cc1ccccc1CC(=O)NCC(N)c1ccc(C(=O)Nc2ccncc2)cc1` (centres unmarked) [Compound 142, 4-{1-Amino-2-[2-(2-methyl-phenyl)-acetylamino]-ethyl}-N-pyridin-4-yl-benzamide], the IC50 lay within 0.5 to 5 µM in assay [1] (setting [4]) and 0.05 to 0.5 µM in assay [2] (setting [4]).

As for `NC(CNC(=O)CC1CCCCC1)c1ccc(C(=O)Nc2ccncc2)cc1` (centres unmarked) [Compound 50, 4-[1-Amino-2-(2-cyclohexyl-acetylamino)-ethyl]-N-pyridin-4-yl-benzamide], the IC50 in assay [1] (setting [4]) and in assay [2] (setting [4]) was 0.5 to 5 µM throughout.

As to `NC(CNC(=O)c1ccc2cc[nH]c2c1)c1ccc(C(=O)Nc2ccncc2)cc1` (centres unmarked) [Compound 131, 1H-Indole-6-carboxylic acid {2-amino-2-[4-(pyridin-4-ylcarbamoyl)-phenyl]-ethyl}-amide], the figures for the IC50 in assay [1] (setting [4]) and in assay [2] (setting [4]) were 5 to 50 µM and 0.5 to 5 µM, respectively.

Turning to `CN(C)CCCC(=O)NCC(N)c1ccc(C(=O)Nc2ccncc2)cc1` (centres unmarked) [Compound 53, 4-[1-Amino-2-(4-dimethylamino-butyrylamino)-ethyl]-N-pyridin-4-yl-benzamide], the IC50 is 5 to 50 µM in assay [1] (setting [4]) and 0.5 to 5 µM in assay [2] (setting [4]).
